Experimental data reported in patent US20100240642A1, “1H-Indole-2-Carboxylic Acid Derivatives Useful As PPAR Modulators” (SMITHKLINE BEECHAM CORPORATION, priority 2006, published 2010).

Assays:
[1] = target: T1, hPPARγ receptor (Homo sapiens, UniProt P37231); test: PPARγ Cell-based luciferase assay; details: CV-1 cells transfected with GAL4-hPPARγ LBD and UAStkLuc; at concentrations of 10^−6 M or less; read-out: agonism of the hPPARγ receptor (activation relative to full agonist rosiglitazone)
T1 construct: expressed in transfected cells; host or cells: CV-1 (African Green Monkey kidney, ATCC CCL-70)
T1 sequence (P37231 172-475 isoform P37231-2): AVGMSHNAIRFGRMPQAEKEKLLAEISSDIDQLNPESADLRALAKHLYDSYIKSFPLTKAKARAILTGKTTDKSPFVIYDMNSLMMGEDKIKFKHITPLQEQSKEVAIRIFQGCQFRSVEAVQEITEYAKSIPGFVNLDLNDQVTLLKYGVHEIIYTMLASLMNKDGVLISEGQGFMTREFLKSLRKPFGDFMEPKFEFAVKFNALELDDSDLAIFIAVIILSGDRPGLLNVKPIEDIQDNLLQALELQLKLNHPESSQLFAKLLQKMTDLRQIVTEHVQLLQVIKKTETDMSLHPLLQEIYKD
Outline: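 CV-1 cells were transiently transfected with GAL4-DBD/human PPARγ LBD (172-475) and a UAS-tk-firefly luciferase reporter. Cells were plated at 10,000/well in 5% charcoal-stripped FBS medium onto 11-point, 3-fold compound dilutions and incubated overnight at 37 °C. Luminescence was read after Steady-Glo lysis, with activation scored relative to rosiglitazone as full agonist.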

[2] = system: Male Zucker Diabetic Fatty rats; test: In vivo evaluation: serum glucose in Zucker Diabetic Fatty rats; parameters: species or system rat; details: 10 mg/kg once daily by oral gavage, 28 days, percent reduction from vehicle control at day 28 relative to normalization (140 mg/dL)
Protocol: Male Zucker Diabetic Fatty rats were lightly anesthetized with isofluorane gas and bleed by tail vein to obtain postprandial baseline concentrations for serum glucose, serum lipids and insulin. Animals were baseline matched by serum glucose and randomized into vehicle or treatment groups with compound administration by oral gavage beginning at 6.5 weeks of age. Selected compounds were administered once daily at 10 mg/kg in 25 mM N-Methyl-Glucamine with 5% w/v Solutol HS15. After 28 consecutive days of treatment, blood samples were obtained and analyzed for serum glucose. Values in Table 1 for % Glucose reduction represent a summary of the percent reduction from vehicle control animals at day 28 relative to normalization defined in this model as serum glucose levels of 140 mg/dL.

Row | SMILES | Emax [1] [%] | % Glucose Reduction [2] [%]
1 | CC(C)(C)c1ccc(-c2c(C(=O)O)n(Cc3cc(OCCN4CCOCC4)cc(OCC4CC4)c3)c3ccccc23)cc1 [Example 42, 1-[(3-[(cyclopropylmethyl)oxy]-5-{[2-(4-morpholinyl)ethyl]oxy}phenyl)methyl]-3-[4-(1,1-dimethylethyl)phenyl]-1H-indole-2-carboxylic acid] | 20 to 80 | 82
2 | COCCOc1cc(Cn2c(C(=O)O)c(-c3ccc(C(C)(C)C)cc3)c3ccccc32)cc(N2CCOCC2)c1 [Example 68, 3-[4-(1,1-dimethylethyl)phenyl]-1-{[3-{[2-(methyloxy)ethyl]oxy}-5-(4-morpholinyl)phenyl]methyl}-1H-indole-2-carboxylic acid] | 20 to 80 | 95
3 | Cc1ccc(-c2ccc(C(=O)O)cc2)cc1Cn1c(C(=O)O)c(-c2ccc(C(C)(C)C)cc2)c2ccccc21 [Example 11, 1-[(4′-carboxy-4-methyl-3-biphenylyl)methyl]-3-[4-(1,1-dimethylethyl)phenyl]-1H-indole-2-carboxylic acid] | 20 to 80 | 49
